Assay results as given in US11248243B2, “Process for the biological production of methacrylic acid and derivatives thereof” (MITSUBISHI CHEMICAL UK LIMITED, priority 2015, dated 2022).

How the values were obtained:
[1] = tested on: acyl-CoA synthetase AcsA; details: published value, cited from earlier work
[2] = target: T1, short chain acyl-CoA oxidase (ACX4) (Arabidopsis thaliana, UniProt Q96329); test: Activity test of ACX4 cell free extract, HPLC analysis; type: biochemical; details: ACX4 cell free extract 0.8 mg/ml, isobutyryl-CoA 500 μM, FAD 10 μM, HEPES pH 7.5, 30° C., 30 min
T1 construct: made in house; host or cells: E. coli BL21 (DE3) pLysS pET20b(+)::ACX4, cell free extract
T1 sequence (Q96329 1-436): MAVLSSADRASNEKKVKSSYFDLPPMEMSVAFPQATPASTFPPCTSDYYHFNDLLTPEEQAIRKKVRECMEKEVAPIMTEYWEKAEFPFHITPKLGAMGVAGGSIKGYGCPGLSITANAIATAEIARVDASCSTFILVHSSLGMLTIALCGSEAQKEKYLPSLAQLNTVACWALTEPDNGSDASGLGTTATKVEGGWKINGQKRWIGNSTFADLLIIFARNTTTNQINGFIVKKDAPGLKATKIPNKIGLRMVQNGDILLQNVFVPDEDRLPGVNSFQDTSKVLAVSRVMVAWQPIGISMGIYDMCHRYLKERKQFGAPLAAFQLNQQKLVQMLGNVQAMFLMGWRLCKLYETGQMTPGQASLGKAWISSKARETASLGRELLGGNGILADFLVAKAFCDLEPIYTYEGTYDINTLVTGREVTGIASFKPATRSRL
Experimental: To prepare a cell free extract of the ACX4 enzyme, one of the cell pellets that was prepared previously was re-suspended in HEPES (50 mM, pH 7.5) buffer (6 ml) that was supplemented with flavin adenine dinucleotide (FAD) at a final concentration of 10 μM. The re-suspended cells were then lysed in a Constant Systems One Shot cell disrupter. The lysate was centrifuged at 18,000 g for 15 min at 4° C. and the supernatant of this was further centrifuged at […] for 60 min at 4° C. The supernatant was concentrated in a VivaSpin Viva6 10,000 Molecular Weight Cut-Off centrifugal concentrator, centrifuging at 10,000 g at 18° C. until a six-fold volume reduction of the retentate. […] The total protein concentration in the retentate was determined using the BioRad DC protein assay kit, using bovine serum albumin as the protein standard. […]
The activity test of ACX4 was performed in 1.5 ml micro-centrifuge tubes. […] The reaction was incubated at 30° C. in the 1.5 ml micro-centrifuge tube, with shaking at 250 rpm for 30 min and the final reaction product was analysed by analytical HPLC (FIG. 5). […]
In order to confirm that the methacrylyl-CoA peak was genuine, and that it was not an isobutyryl-CoA peak with a shifted elution time, the sample was spiked with isobutyryl-CoA and analysed by HPLC again. […]

[3] = target: T2, 4-hydroxybenzoyl-CoA thioesterase (4HBT) (Arthrobacter sp, UniProt Q04416); test: Crude enzymatic assays of 4HBT cell free extract (DTNB, 412 nm); type: biochemical, Arthrobacter sp. strain SU; details: cell free protein extract 1 mg/ml
T2 construct: made in house; host or cells: E. coli BL21 (DE3) pLysS pET20b(+)::4HBT, cell free extract
Experimental: To prepare a cell free extract of the 4HBT enzyme, one of the cell pellets of E. coli BL21 (DE3) pLysS pET20b(+)::4HBT that was prepared previously was re-suspended in HEPES (50 mM, pH 7.5) assay buffer and lysed in a Constant Systems One Shot cell disrupter. The cell lysate was centrifuged at 18,000 g for 15 min at 4° C. and the supernatant of this was centrifuged at 57,750 g for a further 60 min at 4° C. This supernatant was washed using a VivaSpin Viva6 10,000 Molecular Weight Cut-Off centrifugal concentrator, centrifuging at 10,000 g at 18° C. until a six-fold volume reduction, followed by a six-fold re-dilution in the HEPES assay buffer and a further 6-fold volume reduction in the centrifugal concentrator. The total protein concentration of the cell free extracts from E. coli BL21 (DE3) pLysS pET20b(+)::4HBT overexpression cultures was performed using the BioRad DC assay kit, using bovine serum albumin as the protein standard. The same procedure was followed in order to prepare cell free extracts from a cell pellet of the E. coli BL21 (DE3) pLysS pET20b(+), the negative control strain.
Crude enzymatic assays of 4HBT were performed in cuvettes (1 ml) containing cell free protein extract (1 mg·ml^−1), methacrylyl-CoA (approximately 100 μM), 5′5-dithiobis-(2-nitrobenzoic) acid (DTNB) (500 μM). Reactions were started by the addition of substrate and were monitored at 412 nm. […]

T2 sequence (Q04416 whole entry): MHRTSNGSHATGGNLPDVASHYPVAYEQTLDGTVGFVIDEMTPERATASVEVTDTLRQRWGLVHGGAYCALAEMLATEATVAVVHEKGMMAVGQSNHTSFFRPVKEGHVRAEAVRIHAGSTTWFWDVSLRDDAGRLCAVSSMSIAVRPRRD

CC(C)C(=O)O [isobutyric acid]
turnover number (kcat) [1]: 10.6 s⁻¹
Km ([1]; read-out: Michaelis constant (Km)): 140 µM

CC(C)C(=O)SCCNC(=O)CCNC(=O)[C@H](O)C(C)(C)COP(=O)(O)OP(=O)(O)OC[C@H]1O[C@@H](n2cnc3c(N)ncnc32)[C@H](O)[C@@H]1OP(=O)(O)O [isobutyryl-CoA]
oxidation of substrate by ACX4 [2]: oxidises

C=C(C)C(=O)SCCNC(=O)CCNC(=O)[C@H](O)C(C)(C)COP(=O)(O)OP(=O)(O)OC[C@H]1O[C@@H](n2cnc3c(N)ncnc32)[C@H](O)[C@@H]1OP(=O)(O)O [methacrylyl-CoA]
substrate selectivity of 4HBT ([3]; methacrylyl-CoA versus isobutyryl-CoA): selectivity for methacrylyl-CoA over isobutyryl-CoA
hydrolysis of substrate by 4HBT ([3]; substrate approximately 100 μM, DTNB 500 μM): catalysed the hydrolysis
